Assays:
[1] = test system: spatial learning and memory; test: T-water maze in APP/PS1 mice; format: in vivo, APPSwe/PS1 mice
Method: Five groups of APPSwe/PS1 mice received one a week for a period of 12 weeks the following treatment: • Gr1: APPSwe/PS1+NaCl 0.9% n(=20), i.p. injections • Gr4: APPSwe/PS1+CRX527 (20 μg/mouse, 130 μl, n=10), i.p. injections • Gr5: […] (50 μg/mouse, 130 μl, n=10), i.p. injections • Gr8 APPSwe/PS1+AS15 ( 1/10th of human dose, 50 μl, n=10), i.m. injections • Gr9: APPSwe/PS1+AS01B ( 1/10th of human dose, 50 μl, n=10), i.m. injections
Mice were tested during the “light on” phase of the day. Behavioral experimenter was blinded to the genetic and treatment status of animals. To assess hippocampal-dependent spatial learning and memory, mice were trained in the T-water maze task. In this paradigm, we evaluate the mouse's ability to remember the spatial location of submerged platform. The T-maze apparatus (length of stem, 64 cm; length of arms, 30 cm; width, 12 cm; height of walls, 16 cm) was made of clear fiberglass and filled with water (23±1° C.) at a height of 12 cm. A platform (11×11 cm) was placed at the end of the target arm and was submerged 1 cm below the surface. The acquisition phase allows to evaluate animals for left-right spatial learning. During the first two trials, platforms were placed on each arms of the maze to test the spontaneous turning preference of the mouse. After these two trials, the least chosen arm was reinforced by the escape platform. The mice were placed in the stem of the T-maze and choose to swim either left or right until they found the submerged platform and escape to it, to a maximum of 60 s. After reaching the platform, the mice remained on it for 20 s and then were immediately placed back in the maze. […] Repeated trials were presented on the same day up to a maximum of 48 trials. A rest period of at least 10-15 min intervened between each block of 10 trials. A mouse was considered to have learned the task when it made no errors in a block of five consecutive trials. The reversal learning phase was then conducted 48 h later. During this phase, the same protocol was repeated, except that the mice were trained to find the escape platform on the opposite side to that on which they had learned on acquisition phase. The number of trials to reach the criterion (five of five correct choices made on consecutive trials) was measured as well as the latency to find the escape platform.

[2] = test system: CD11b+ monocytes; test: In vivo uptake assay of Aβ42 after immunization or passive immunotherapy; set-up: species or system C57BL/6 mice; settings: Example 20
Method: Mice: C57BL/6 female mice were purchased from Charles River. […]
[…] At day 22, 5 μg per mouse of fluorescent HiLyte Fluor™ 488-labeled Amyloid β1-42 (Anaspec, Fremont, Calif.) was injected in the tail vein. […] Plasma of pooled blood was decanted and saved for measurement of antibody titres by ELISA. Red blood cell lysis was performed twice with Ammonium Chloride-based Buffer (Sigma, Steinheim, Germany) and cells were counted with the EasyCount™ System (Immunicon).
FACS analysis: 500,000 cells were aliquoted in a 96-well plate, washed once, incubated for 10 min. on ice in the presence of Rat anti-Mouse CD16/CD32 (clone 2.4G2—BD Fc Block™) and further stained for 30 min. with a combination of the following directly conjugated antibodies at their pre-determined optimal concentration: PE-Hamster anti-Mouse CD3 (clone 145-2C11), Rat anti-Mouse CD45R/B220 (clone RA3-6B2), Rat anti-Mouse Ly-6G (clone 1A8), Mouse anti-Mouse NK1.1 (clone PK136), APC-conjugated Rat anti-Mouse CD11b (clone M1/70), PE-Cy7-conjugated Hamster anti-Mouse CD11c (clone HL3), (all from BD PharMingen). Cells were finally washed twice and fixed for 15 min. with a 2% paraformaldehyde solution in PBS. FMOs controls were always included in the assays.
Samples were acquired on a flow cytometer (BD FACSCanto II) and data analyzed with the FACSDiva software (BD Biosciences).
Monocytes were identified by their Side/Forward scatter properties, excluding debris and gated as CD3-/CD45R/B220-/Ly-6G-/NK1.1-(Lineage-)/CD11b+ cells. Aβ uptake was assessed by reporting the percentage and Mean Fluorescence Intensity (GeoMean) of positive HiLyte Fluor™ 488 Aβ1-42 cells among gated monocytes.
Mice were passively immunized with a constant dose of anti Aβ monoclonal antibody (15 ug of 2E7)+different dose of immunomodulators (CRX601 or CRX601/AS03 or AS01B). […] Red blood cell lysis was performed twice with Ammonium Chloride-based Buffer (Sigma, Steinheim, Germany) and cells were counted with the EasyCount™ System (Immunicon). […]

CCCCCCCCCCC[C@H](CC(=O)N[C@H]1[C@H](OC[C@H](NC(=O)C[C@@H](CCCCCCCCCCC)OCCCCCCCCCC)C(=O)O)O[C@H](CO)[C@@H](OP(=O)(O)O)[C@@H]1OC(=O)C[C@@H](CCCCCCCCCCC)OCCCCCCCCCC)OCCCCCCCCCC [CRX601]
behaviour as assessed by T water maze testing ([1]; Example 21, twelve weekly injections, vs non treated mice): significant improvements in behaviour
cognitive functions, T-water maze ([1]; Example 22, i.m. 12x weekly, CRX601 2 μg, CRX601 2 ug in AS03, 3D MPL 5 ug, AS01B 1/10 human dose, vs PBS, unpaired t-tests): significant improvement of their cognitive functions
antibody-mediated Aβ uptake when combined with AS03 emulsion ([2]; CRX601 20 ug with AS03): partially quenched
antibody-mediated Aβ uptake ([2]; CRX601 at 20 ug single i.m., 15 ug of 2E7, 24 hrs): highest Aβ uptake
dose dependence of antibody-mediated Aβ uptake ([2]; different doses, constant 2E7): Dose-response observed
